# Patent US20100260716A1, “COMPOUNDS FOR TREATING DEM[…]” (UCB PHARMA GMBH, priority 2007, published 2010)
# How the values were obtained:
# [1] = target: collapsin response mediator protein 2 (CRMP-2) (Homo sapiens, UniProt Q16555); settings: statement quoted from poster, Stoehr et al., November 2006; cited from earlier work
# [2] = tested on: acute EAE induced by MBP/CFA; experiment: Acute experimental allergic encephalomyelitis (EAE) rat model; type: in vivo, female Lewis rats; settings: days 0-21, vehicle-treated animals onset at day 9, significantly postponed
# Protocol: EAE is induced in female Lewis rats on day zero of the study by a single inoculum injection of myelin basic protein (MBP) and complete Freund's adjuvant (CFA) containing heat killed Mycobacterium tuberculosis F137 Ra at a concentration of 4 mg/ml (MD Biosciences Ltd, Israel). This MBP/CFA encephalitogenic emulsive inoculum (100 μg MBP+200 μg CFA) is injected at a total dose volume of 100 μl/animal, delivered as 2×50 subcutaneous bilateral injections into the intraplanar paw regions.
# Lacosamide is administered by intraperitoneal (i.p.) injection twice daily (b.i.d.) on days 0-21 of the study, in a volume of 10 ml/kg at daily doses of 6, 20 and 60 mg/kg. A vehicle control containing no lacosamide is administered by the same route and at the same frequency.
# The duration of the study is 21 days. Careful clinical examinations are carried out and recorded at least once daily in addition to EAE clinical scoring and assessment. […]
# Initially, all animals are examined for signs of any neurological responses and symptoms prior to EAE induction (day 0) and thereafter examined on a daily basis through the entire 21-day observation period. To avoid experimental bias, EAE reactions are determined in a blinded fashion, as much as possible, by a staff member unaware of the specific treatment applied. […]
smiles,measurement,setting,value
"COC[C@@H](NC(C)=O)C(=O)NCc1ccccc1 [lacosamide, (R)-2-acetamido-N-benzyl-3-methoxypropionamide]",Effect on CRMP-2 and on the effects of neurotrophic factors on axon growth,[1],modulates CRMP-2 and as a consequence attenuates the effects of neurotrophic factors on axon growth
same,Disease onset (day after EAE induction),[2]; 10 mg/kg b.i.d. i.p.,12 days
same,Disease onset (day after EAE induction),[2]; 30 mg/kg b.i.d. i.p.,12 days
